This note sets out measurements from patent publication US20230278997A1, “BICYCLO[1.1.1]PENTANE COMPOUNDS FOR THE TREATMENT AND PROPHYLAXIS OF HEPATITIS B VIRUS INFECTION” (Hoffmann-La Roche Inc., priority 2020, published 2023).

One data set relates to HBsAg. In words: microbe, parasite or virus in culture. The data set is classed as cell-based, HBV. Particulars: Hepatitis B virus, read-out: HBsAg IC50.
The next data set relates to HBeAg. In words: microbe, parasite or virus in culture. The note with it: Hepatitis B virus, read-out: HBeAg IC50. The class given is cell-based, HBV.
The test system of data set [1] is primary human hepatocyte (PHH). As to the kind of experiment: Cytotoxicity in PHH natural infection assay (Cell Counting Kit-8). The class given is cell-based. Particulars: therapeutic index; CC50 by CCK8 in PHH over HBsAg IC50.
A short description of data set [2]: Human microsome stability assay. Particulars: 1 μM compound, 0.5 mg/mL microsomal protein, 37° C.; detection limit 6.15 mL/min/kg. The class given is in vitro ADME.
The nature of data set [3]: Single dose pharmacokinetics (PK) study in male C57BL/6 mouse. The note with it: for AUC(0-t) / clearance / half-life / Vd: male; for AUC(0-t): C57BL/6, mouse plasma; for F / clearance / half-life / Vd: mouse; for F: dose normalized AUC0-last; for clearance / half-life / Vd: C57BL/6, plasma; for Vd: read-out: VSS. The class given is in vivo. The procedure:
Single Dose Pharmacokinetics (PK) Study in Male C57BL/6 Mouse Pharmacokinetic properties of selected compounds were assessed by single dose PK studies in Male C57BL/6 mouse (vendor: Beijing Vital River Laboratory Animal Technology Co., Ltd). Briefly, two groups of animals were administered a single dose of respective compound intravenously (IV, bolus) at 1 mg/kg or orally (PO, by gavage) at 10 mg/kg or 30 mg/kg. […] After centrifugation, the resulting plasma was transferred to clean tubes for bioanalysis with LC/MS/MS. The pharmacokinetic parameters were calculated using non-compartmental analysis. The volume of distribution (Vss), half-life (T1/2) and clearance (CL) were obtained based on the plasma concentration-time curve after IV dose. The peak concentration (Cmax) was recorded directly from experimental observations after PO dose. The area under the plasma concentration-time curve (AUC0-last and AUC0-24 h) was calculated using the linear trapezoidal rule up to the last detectable concentration. The bioavailability (F) was calculated based on the dose normalized AUC0-last after IV and PO dose. The Vss of a drug represents the degree to which a drug is distributed in body tissue rather than the plasma. Vss is directly proportional with the amount of drug distributed into tissue. A higher Vss indicates a greater amount of tissue distribution.

Assay in data set [4]: as above
The class given is in vivo. Particulars: IV dose 0.4 mg/kg.

[5] abbreviates: PO 30 mg/kg single dose, read-out: PO AUC0-24h.
[6] abbreviates: IV bolus 1 mg/kg, read-out: IV AUC0-24h.
Setting [7] is: PO 10 mg/kg single dose, read-out: PO AUC0-24h.

Read-outs that look alike come from different tables or passages of the source. Some results are limits rather than exact numbers.

Broadly, the IC50 is the midpoint of a concentration-inhibition curve. What is called clearance is the rate of elimination divided by the concentration. A word on the half-life: it is how long it takes for the measured level to halve. A low value points to rapid decline. For `CS(=O)(=O)C1(c2nsc(C(=O)NC34CC(c5nc(-c6ccc(Cl)cc6)no5)(C3)C4)n2)CC1` [Example 34, N-[3-[3-(4-chlorophenyl)-1,2,4-oxadiazol-5-yl]-1-bicyclo[1.1.1]pentanyl]-3-(1-methylsulfonylcyclopropyl)-1,2,4-thiadiazole-5-carboxamide], the IC50 in the data set on HBsAg and with HBeAg was 20 nM in each case. For the same molecule, the “TI (CC50/IC50 HBsAg)” value in data set [1] worked out at 181.50. Also, in data set [2], the “Clearance of human microsome” value is given as not above 6.15 mL/min/kg. Moreover, the AUC(0-t) in data set [3] (setting [5]) is 270000 ng·h/mL; in data set [4] (C57BL/6, mouse plasma, AUC value is dose-normalized, read-out: IV AUC0-24h), 24200 ng·h/mL. In data set [3] (PO 30 mg/kg vs IV), the F was determined as 39%. Moreover, the clearance in data set [4] (C57BL/6, plasma, mouse) turned out to be 0.03 mL/min/kg. The half-life in data set [4] (C57BL/6, plasma, mouse) is more than 40 h. Moreover, the Vd in data set [4] (C57BL/6, plasma, mouse, read-out: VSS) was found to be 0.93 L/kg.
For `CS(=O)(=O)C1(c2nsc(C(=O)NC34CC(c5noc(-c6ccc(Cl)cc6)n5)(C3)C4)n2)CC1` [Example 41, N-[3-[5-(4-chlorophenyl)-1,2,4-oxadiazol-3-yl]-1-bicyclo[1.1.1]pentanyl]-3-(1-methylsulfonylcyclopropyl)-1,2,4-thiadiazole-5-carboxamide], in the data set with HBsAg, the IC50 turned out to be 130 nM. Besides, the IC50 with HBeAg stood at 80 nM. For the same molecule, the “TI (CC50/IC50 HBsAg)” value in data set [1] is 65.54. Besides, the “Clearance of human microsome” value in data set [2] was determined as 14.14 mL/min/kg. Besides, in data set [3] (IV bolus 1 mg/kg), the clearance was 0.11 mL/min/kg, the half-life is 67.3 h and the Vd was determined as 0.62 L/kg. For the same molecule, in data set [3] (setting [6]), the AUC(0-t) came out at 34000 ng·h/mL. In data set [3] (setting [7]), the AUC(0-t) worked out at 59700 ng·h/mL. Besides, in data set [3] (PO 10 mg/kg vs IV 1 mg/kg), the F was determined as 18%.
`CS(=O)(=O)C1(c2nsc(C(=O)NC34CC(c5ccnc(-c6ccc(Cl)cc6)n5)(C3)C4)n2)CC1` [Example 48, N-[3-[2-(4-chlorophenyl)pyrimidin-4-yl]-1-bicyclo[1.1.1]pentanyl]-3-(1-methylsulfonylcyclopropyl)-1,2,4-thiadiazole-5-carboxamide]: the IC50 with HBsAg turned out to be 70 nM. Also, the IC50 in the data set with HBeAg stood at 70 nM. For the same molecule, the “TI (CC50/IC50 HBsAg)” value in data set [1] came to 127.43. Also, the “Clearance of human microsome” value in data set [2] is given as 10.71 mL/min/kg. In addition, in data set [3] (IV bolus 1 mg/kg), the clearance was 0.07 mL/min/kg, the half-life is 53.7 h and the Vd came to 0.29 L/kg. For the same molecule, the AUC(0-t) in data set [3] (setting [6]) came out at 70200 ng·h/mL. Moreover, the AUC(0-t) in data set [3] (setting [7]) came to 629000 ng·h/mL. The F in data set [3] (PO 10 mg/kg vs IV 1 mg/kg) worked out at 92%.
For `CS(=O)(=O)C1(c2nsc(C(=O)NC34CC(c5cnn(-c6ccc(Cl)cc6)n5)(C3)C4)n2)CC1` [Example 60, N-[3-[2-(4-chlorophenyl)triazol-4-yl]-1-bicyclo[1.1.1]pentanyl]-3-(1-methylsulfonylcyclopropyl)-1,2,4-thiadiazole-5-carboxamide], the IC50 in the data set with HBsAg and in the data set with HBeAg was 17 nM in each case. Besides, the “TI (CC50/IC50 HBsAg)” value in data set [1] turned out to be 261.76. Further, the “Clearance of human microsome” value in data set [2] is reported as not above 6.15 mL/min/kg. In data set [3] (IV bolus 1 mg/kg), the clearance stood at 0.1 mL/min/kg. The molecule further gave a half-life in data set [3] (IV bolus 1 mg/kg) of 62.4 h. Moreover, the Vd in data set [3] (IV bolus 1 mg/kg) is 0.55 L/kg. The results for the AUC(0-t) in data set [3] (setting [6]) and in data set [3] (setting [5]) were 38100 ng·h/mL and 154000 ng·h/mL, respectively. In addition, in data set [3] (PO 30 mg/kg vs IV), the F is on record as 14%.
